Columns and labels:
[1] = Hygroscopicity of solid DOPC; type: physicochemical
Source text: In addition, waxy DOPC can only be comminuted with difficulty and, like lyophilised DOPC, can only be weighed out with difficulty. This makes handling of this compound much more difficult.

[2] = stored under a protective gas at −20° C.; cited from earlier work
[3] = Storage stability of crystalline DOPC, residual content by HPLC; type: physicochemical; conditions: exclusion of air
Method: In order to determine the stability of crystalline DOPC, the substances are stored together with comparative samples at 25° C. and 60% relative humidity and at 40° C. and 75% relative humidity with exclusion of air. The residual content of DOPC is measured at periodic intervals and indicated compared with the initial value. Purity and content of DOPC are determined by HPLC. For the type I crystal modification, the following values were found: […]

[4] = 25° C./60% relative humidity, storage time 0 months
[5] = 25° C./60% relative humidity, storage time 3 months
[6] = 25° C./60% relative humidity, storage time 6 months
[7] = 25° C./60% relative humidity, storage time 9 months
[8] = 25° C./60% relative humidity, storage time 12 months
[9] = 25° C./60% relative humidity, storage time 18 months
[10] = 40° C./75% relative humidity, storage time 0 months
[11] = 40° C./75% relative humidity, storage time 3 months
[12] = 40° C./75% relative humidity, storage time 6 months
[13] = 40° C./75% relative humidity, storage time 9 months
[14] = 40° C./75% relative humidity, storage time 12 months

Structure (SMILES): CCCCCCCC/C=C\CCCCCCCC(=O)OC[C@H](COP(=O)([O-])OCC[N+](C)(C)C)OC(=O)CCCCCCC/C=C\CCCCCCCC [Crystalline DOPC]
- hygroscopicity [1]: improved hygroscopicity

Structure (SMILES): CCCCCCCC/C=C\CCCCCCCC(=O)OC[C@H](COP(=O)([O-])OCC[N+](C)(C)C)OC(=O)CCCCCCC/C=C\CCCCCCCC [amorphous DOPC, reference compound]
- hygroscopicity [1]: extremely hygroscopic

Structure (SMILES): CCCCCCCC/C=C\CCCCCCCC(=O)OC[C@H](COP(=O)([O-])OCC[N+](C)(C)C)OC(=O)CCCCCCC/C=C\CCCCCCCC [lyophilised DOPC]
- guaranteed shelf life [2]: about 12 months

Structure (SMILES): CCCCCCCC/C=C\CCCCCCCC(=O)OC[C@H](COP(=O)([O-])OCC[N+](C)(C)C)OC(=O)CCCCCCC/C=C\CCCCCCCC [type I crystalline (R)-DOPC, 1,2-dioleoyl-sn-glycero-3-phosphocholine]
- purity of DOPC (HPLC) compared with the initial value [3, 4]: 100.0 Area-%
- residual content of DOPC compared with the initial value [3, 4]: 100.0 % by weight
- purity of DOPC (HPLC) compared with the initial value [3, 5]: 100.0 Area-%
- residual content of DOPC compared with the initial value [3, 5]: 100.9 % by weight
- purity of DOPC (HPLC) compared with the initial value [3, 6]: 100.0 Area-%
- residual content of DOPC compared with the initial value [3, 6]: 99.3 % by weight
- purity of DOPC (HPLC) compared with the initial value [3, 7]: 100.0 Area-%
- residual content of DOPC compared with the initial value [3, 7]: 100.8 % by weight
- purity of DOPC (HPLC) compared with the initial value [3, 8]: 99.7 Area-%
- residual content of DOPC compared with the initial value [3, 8]: 100.4 % by weight
- purity of DOPC (HPLC) compared with the initial value [3, 9]: 99.8 Area-%
- residual content of DOPC compared with the initial value [3, 9]: 100.6 % by weight
- purity of DOPC (HPLC) compared with the initial value [3, 10]: 100.0 Area-%
- residual content of DOPC compared with the initial value [3, 10]: 100.0 % by weight
- purity of DOPC (HPLC) compared with the initial value [3, 11]: 99.9 Area-%
- residual content of DOPC compared with the initial value [3, 11]: 100.0 % by weight
- purity of DOPC (HPLC) compared with the initial value [3, 12]: 99.8 Area-%
- residual content of DOPC compared with the initial value [3, 12]: 98.4 % by weight
- purity of DOPC (HPLC) compared with the initial value [3, 13]: 99.8 Area-%
- residual content of DOPC compared with the initial value [3, 13]: 99.8 % by weight
- purity of DOPC (HPLC) compared with the initial value [3, 14]: 99.7 Area-%
- residual content of DOPC compared with the initial value [3, 14]: 99.5 % by weight

From US8513446B2, “Stable crystal modifications of DOPC” (Merck Patent GmbH, priority 2008, dated 2013)
